# According to US20110237677A1, “Inhibitors” (The University of Nottingham, priority 2008, published 2011):
# Key:
# human myometrial tissue = assay: Isometric tension recording, oxytocin-induced contractions of myometrial strips; assay type: cell-based; conditions: for EC50: Homo sapiens, inhibition of contractions stimulated with 10^−10M oxytocin, pooled experiments, cumulative additions, tissue 24 hours after elective caesarean; for effect on oxytocin-induced contractions: dose-dependent, 10^−10M oxytocin; for oxytocin-induced contractions after removal of the inhibitor by washing: washing with physiological salt solution, re-stimulation with oxytocin
# Source text: (§1) Longitudinal myometrial strips were mounted in an organ bath and contractile activity recorded as a measure of tensile force as previously described (Chanrachakul, Broughton-Pipkin et al., Am J Obstet Gynecol 192(2): 458-63, 2005). Myometrial contractions were initially stimulated by addition of oxytocin, bradykinin or phenylephrine (Sigma-Aldrich; 10^−10 mol/L, 10^−8 mol/L, 10^−8 mol/L respectively). Once rhythmic contractions had been achieved cumulative additions of cystamine (Sigma-Aldrich; 10^−8 to 10^−2 mol/L), mono-dansylcadaverine (MDC) (Sigma-Aldrich; 10^−8 to 10^−4 mol/L), cysteamine (Sigma-Aldrich; 10^−9 to 10^−2 mol/L), putrescine (Sigma-Aldrich; 10^−8 to 10^−4 mol/L) were added at 25 minute intervals. Contractile activity was determine by activity integral measured from 20 minutes time periods for each drug addition and analysed along with time-matched control myometrial strips under the same conditions but with vehicle additions (physiological salt solution).
# myometrial strips [1] = assay: Isometric tension recording, bradykinin-induced contractions of myometrial strips; assay type: cell-based, human; conditions: bradykinin 10^−8M; compared to control strips
# Source text: as §1
# myometrial strips [2] = assay: Isometric tension recording, phenylephrine-induced contractions of myometrial strips; assay type: cell-based, human; conditions: phenylephrine 10^−8M; compared to control strips
# Source text: as §1
# myometrial strips [3] = assay: Isometric tension recording, spontaneous contractions of myometrial strips; assay type: cell-based, human; conditions: 2 g tension, organ bath; dose-dependent
# Method: FIG. 9 Diagrammatic representations showing that spontaneous contractions in myometrial strips are inhibited by cystamine (n=4), cysteamine (n=3) and MDC (n=2) in a dose-dependent manner. Control strips are shown with unbroken line (n=2). Tissue is used 24 hours following elective caesarean section and contractions are allowed to spontaneously initiate under 2 g tension and in a temperature controlled and oxygenated organ bath.
# as §1
# [4] = test system: Myometrial smooth muscle cells; assay: Calcium mobilisation assay, oxytocin stimulated; assay type: cell-based, human; conditions: for effect on maximal calcium mobilisation: incubation with 10^−6M inhibitor, oxytocin stimulated; for Emax, maximal calcium mobilisation on oxytocin stimulation: pre-incubation for 10 minutes with 10^−6M inhibitor, FlexStation fluorescence
# Method: Myometrial smooth muscle cells were grown in DMEM (Dulbecco's Modified Eagle Medium; Sigma-Aldrich) supplemented with 10% fetal calf serum, L-glutamine and 0.2% pen/strep at 37° C. 5% CO2, following dissociation in 2 mg/ml collagenase (Sigma-Aldrich). Once confluent cells were plated on black-walled flat-bottomed sterile 96-well plates (Costar) at a concentration of 10^5 cells/ml and in the same media makeup and again grown to confluence. Once confluent, cells were incubated in 100 μl media/well containing 2.5 mM probenecid (Sigma-Aldrich), 2.3 μM Fluo-4 (invitrogen) and 0.023% pluronic acid (Invitrogen) for one hour in the dark at 37° C. 5% CO2. Cells were then washed twice with phosphate buffered saline and finally incubated in 100 μl/well PSS (Chanrachakul, Broughton-Pipkin et al., Am J Obstet Gynecol 192(2): 458-63, 2005) containing 2.5 mM probenecid with or without 10^−6 mol/L cystamine, MDC or cysteamine for 10 minutes. Fluorescent readout was then recorded on FlexStation ([…]) over a 200 second period with oxytocin addition at 15 seconds (10^−11 to 10^−5 mol/L) and ionomycin, to measure maximal potential response, at 150 seconds (10^−6 mol/L; Sigma-Aldrich).
EC50 (human myometrial tissue),Structure (SMILES),"contractility, % of untreated control myometrium (human myometrial tissue; MDC 10^−4M, contractions stimulated with 10^−10M oxytocin)",effect on oxytocin-induced contractions (human myometrial tissue),oxytocin-induced contractions after removal of the inhibitor by washing (human myometrial tissue),effect on bradykinin induced contractions (myometrial strips [1]),effect on phenylephrine induced contractions (myometrial strips [2]),effect on spontaneous contractions (myometrial strips [3]),effect on maximal calcium mobilisation [4],"Emax, maximal calcium mobilisation on oxytocin stimulation [4]"
22 µM,"CN(C)c1cccc2c(S(=O)(=O)NCCCCCN)cccc12 [MDC, Monodansylcadaverine]",17.8%±6.2,inhibited,return to control levels,inhibited in a dose dependent manner,inhibited in a dose dependent manner,inhibited,significantly reduced,81.45
1310 µM,NCCSSCCN [cystamine],–,inhibited,return to control levels,inhibited in a dose dependent manner,inhibited in a dose dependent manner,inhibited,significantly reduced,87.67
1.63 µM,NCCS [cysteamine],–,inhibited,began to return to control levels,–,–,inhibited,significantly reduced,98.95
56.6 µM,NCCCCN [putrescine],–,inhibited,–,–,–,–,–,–
